Values of other authors in patent publication US20080057125A1, “STABLE TABLET DOSAGE FORMS OF PROTON PUMP INHIBITORS” (priority 2005, published 2008).
Like-named read-outs stand apart in the source and are kept apart here.

Columns and labels:
[1] = from commercially marketed dosage forms
[2] = 25° C.

| SMILES | percent bioavailability [1] | degradation half-life in aqueous solution ([2]; pH 5.0) | degradation half-life in aqueous solution ([2]; pH 7.0) |
| --- | --- | --- | --- |
| COc1ccc2[nH]c([S+]([O-])Cc3ncc(C)c(OC)c3C)nc2c1 (stereo not shown) [omeprazole, 2-[2-(3,5-dimethyl-4-methoxy)-pyridylmethylsulfinyl]-(5-methoxy)-benzimidazole] | 30-40% | – | – |
| Cc1c(OCC(F)(F)F)ccnc1C[S+]([O-])c1nc2ccccc2[nH]1 (stereo not shown) [Lansoprazole, 2-[[[3-methyl-4-(2,2,2-trifluoroethoxy)-2-pyridyl]methyl]sulfinyl]benzimidazole] | 80-85% | approximately 0.5 hour | approximately 18 hours |
